Converted amounts (≈) assume the structure as drawn. Read-outs that look alike come from different tables or passages of the source.
Key:
[1] = Aqueous solubility (pH 7.4); format: physicochemical
[2] = Stability of aqueous suspension, 2 weeks at 40° C./75% relative humidity (XPRD); format: physicochemical; details: aqueous 0.25% CMC-Na/0.5% TWEEN-80 suspension
Experimental: LC-MS (ESI+): m/z 502.41 [M+H]^+. About 275 mg/g of Compound 6 was suspended in aqueous 0.25% CMC-Na/0.5% TWEEN-80 (26 gauge syringeability) and was subjected to stability for 2 weeks at 40° C./75% relative humidity.

[3] = SC rat PK: EFdA plasma levels; details: for Cmax compared with EFdA / duration of plasma levels of EFdA above lower limit of quantitation (LLOQ): single SC dose, 10 mg/kg EFdA equivalent, 4 mg/mL; for half life and mean residence life compared with EFdA: SC, 100 mg/kg EFdA equivalent
Experimental: (§1) • Animals: Animals (Male SD rats ˜200-250 g and Male rhesus macaques ˜2-3 kg) were obtained from an approved vendor (SLAC Laboratory Animal Co. Ltd., Shanghai, China and/or Topgene Biotechnology, Wuhan city, Hubei Province, China). • Acclimation/Quarantine: Following arrival, animals were assessed as to their general health by a member of the veterinary staff or other authorized personnel. Animals were acclimated for at least 3 days before being placed on study. • Animal Husbandry: Animals were group housed during acclimation and individually housed during the study. The animal room environment will be controlled (target conditions: temperature 18 to 26° C., relative humidity 30 to 70%, 12 hours artificial light and 12 hours dark). Temperature and relative humidity were monitored daily. • Animal Cannulation: No
(§2) Animals were fasted at least 12 hours prior to the administration. All animals had access to Certified Rodent and non-Rodent Diet (Catalog #M01-F, SLAC Laboratory Animal Cl. Ltd., Shanghai, China) ad libitum 4 hours post dosing.
Animals were dosed within four hours of suspension preparation. Two 20 μL aliquots of each prepared suspension were transferred into 1.5 mL of polypropylene microcentrifuge tubes and dose validation was run by LC/UV or LC-MS/MS.
The suspensions were administered via subcutaneous injection (SC) following facility standard operations procedures (SOPs).
Approximately 200 μL blood was collected from saphenous vein at each time point for rats and 0.5 mL for rhesus macaques. All blood samples were transferred into microcentrifuge tubes containing 4 μL of K2EDTA (0.5M) as anti-coagulant and placed on wet ice until processed for plasma.
Blood: Blood samples were processed for plasma by centrifugation at approximately 4° C., 3000 g 15 min within half an hour of collection. Plasma samples was stored in polypropylene tubes, quick frozen over dry ice and kept at −70±10° C. until LC/MS/MS analysis.
If the carryover couldn't meet the criteria, then the percent of carryover should be estimated following in-house bioanalytical SOP. 6. Data Analysis
Plasma concentration versus time data was analyzed by non-compartmental approaches using the Phoenix WinNonlin 6.3 software program. Cmax, Tmax, T1/2, AUC(0-t), AUC(0-inf), MRT(0-t), MRT(0-inf), % F and graphs of plasma concentration versus time profile were generated.
Several prodrugs including EFdA (1) as a control were subjected to a single dose rat PK studies via subcutaneous route of administration. All animals were injected with equivalent doses of 10 mg/kg and concentration of 4 mg/mL of EFdA as an aqueous suspension in 0.5% CMC-Na and 0.5% TWEEN-80.
After optimization, SC rat PK studies were performed again with high equivalent dose of 100 mg/kg at equivalent concentration of 120 mg/mL for Compound 3, 116 mg/mL for Compound 5, and 319 mg/mL of EFdA, respectively.

[4] = SC rhesus PK: EFdA plasma levels; details: rhesus macaque, single SC dose, 50 mg/kg EFdA equivalent
Experimental: as §1, §2
Animals were dosed within four hours of suspension preparation. […]
Plasma concentration versus time data was analyzed by non-compartmental approaches using the Phoenix WinNonlin 6.3 software program. […]

[5] = Optimization of surfactant concentration in Compound 5 suspension (syringeability, viscosity, flow, resuspension); format: physicochemical; parameters: key to Flow: + No Flow; ++ Less Flow; +++ Good Flow; ++++ Very Good Flow; key to Viscosity: ++++ Slightly Viscous; +++ Viscous; ++ Very Viscous; + Semisolid; key to Syringeability (26 G): ✓: Syringeable; details: 400 mg/gm Compound 5, after 10 days of storage
Experimental: The concentration of surfactant was optimized with 0.3% and 0.5% of methyl cellulose in a formation containing 400 mg/gm of micronized Compound 5. Formulations were prepared with different concentrations of TWEEN-80 (0.1, 0.2 and 0.3%).

[6] = aqueous medium at pH 7.4, pH 7.4, aqueous buffer, read-out: Aqueous solubility (pH 7.4)
[7] = 0.3% Methyl Cellulose, 0.1% TWEEN-80
[8] = 0.3% Methyl Cellulose, 0.2% TWEEN-80
[9] = 0.3% Methyl Cellulose, 0.3% TWEEN-80
[10] = 0.5% Methyl Cellulose, 0.1% TWEEN-80
[11] = 0.5% Methyl Cellulose, 0.2% TWEEN-80
[12] = 0.5% Methyl Cellulose, 0.3% TWEEN-80

C#C[C@]1(COC(=O)c2ccccc2)O[C@@H](n2cnc3c(N)nc(F)nc32)C[C@@H]1OC(=O)c1ccccc1 [Compound 6, (2R,3S,5R)-5-(6-amino-2-fluoro-9H-purin-9-yl)-2-((benzoyloxy)methyl)-2-ethynyl tetrahydrofuran-3-yl benzoate]
solubility [1, 6]: < 2 µg/mL | crystallinity in suspension (XPRD) [2]: retains good crystallinity in suspension

C#C[C@]1(CO)O[C@@H](n2cnc3c(N)nc(F)nc32)C[C@@H]1O [Compound 1, 4′-Ethynyl-2-fluoro-2′-deoxyadenosine, reference compound]
solubility ([1]; aqueous medium at physiological pH, pH 7.4, aqueous buffer, read-out: aqueous solubility at physiological pH): 877 µg/mL (≈ 2990 µM)

C#C[C@]1(COC(=O)C(C)C)O[C@@H](n2cnc3c(N)nc(F)nc32)C[C@@H]1OC(=O)C(C)C [Compound 2, (2R,3S,5R)-5-(6-amino-2-fluoro-9H-purin-9-yl)-2-ethynyl-2-((isobutyryloxy)methyl)tetrahydrofuran-3-yl isobutyrate]
crystallinity in suspension (XPRD) [2]: retains good crystallinity in suspension | Cmax compared with EFdA [3]: much lower than for EFdA | duration of plasma levels of EFdA above lower limit of quantitation (LLOQ) [3]: more than a week

C#C[C@]1(COC(=O)C(CC)CC)O[C@@H](n2cnc3c(N)nc(F)nc32)C[C@@H]1OC(=O)C(CC)CC [Compound 3, (2R,3S,5R)-5-(6-amino-2-fluoro-9H-purin-9-yl)-2-(((2-ethylbutanoyl)oxy)methyl)-2-ethynyltetrahydrofuran-3-yl 2-ethylbutanoate]
half life and mean residence life compared with EFdA [3]: Enhanced half life and mean residence life | Cmax compared with EFdA [3]: much lower than for EFdA | duration of plasma levels of EFdA above lower limit of quantitation (LLOQ) [3]: more than a week

C#C[C@]1(COC(=O)Cc2ccccc2)O[C@@H](n2cnc3c(N)nc(F)nc32)C[C@@H]1OC(=O)Cc1ccccc1 [Compound 5, (2R,3S,5R)-5-(6-amino-2-fluoro-9H-purin-9-yl)-2-ethynyl-2-((2-phenylacetoxy)methyl)tetrahydrofuran-3-yl 2-phenylacetate]
half life and mean residence life compared with EFdA [3]: Enhanced half life and mean residence life | Cmax compared with EFdA [3]: much lower than for EFdA | duration of plasma levels of EFdA above lower limit of quantitation (LLOQ) [3]: more than a week | duration of plasma levels of EFdA above LLOQ [4]: more than a month | Flow [5, 7]: ++++ | Syringeability (26 G) [5, 7]: ✓ | Time Taken to Resuspend [5, 7]: 2.2 min | Viscosity [5, 7]: ++++ | Flow [5, 8]: ++++ | Syringeability (26 G) [5, 8]: ✓ | Time Taken to Resuspend [5, 8]: 2.5 min | Viscosity [5, 8]: ++++ | Flow [5, 9]: ++++ | Syringeability (26 G) [5, 9]: ✓ | Time Taken to Resuspend [5, 9]: 2.3 min | Viscosity [5, 9]: ++++ | Flow [5, 10]: ++++ | Syringeability (26 G) [5, 10]: ✓ | Time Taken to Resuspend [5, 10]: 2.5 min | Viscosity [5, 10]: ++++ | Flow [5, 11]: ++++ | Syringeability (26 G) [5, 11]: ✓ | Time Taken to Resuspend [5, 11]: 2.5 min | Viscosity [5, 11]: ++++ | Flow [5, 12]: ++++ | Syringeability (26 G) [5, 12]: ✓ | Time Taken to Resuspend [5, 12]: 3.0 min | Viscosity [5, 12]: ++++

C#C[C@]1(COC(=O)C2CCCC2)O[C@@H](n2cnc3c(N)nc(F)nc32)C[C@@H]1OC(=O)C1CCCC1 [Compound 4, (2R,3S,5R)-5-(6-amino-2-fluoro-9H-purin-9-yl)-2-(((cyclopentanecarbonyl)oxy)methyl)-2-ethynyltetrahydrofuran-3-yl cyclopentanecarboxylate]
solubility [1, 6]: < 1 µg/mL
